One molecule from PubChem BioAssay (NCI) can be followed below.

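96-well plates; 48 h exposure; 5 concentrations. Endpoints by linear interpolation between flanking doses. Not reached: highest tested concentration assigned. The concentration for 50% growth inhibition is given as GI50. TGI is the concentration that stops growth completely.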

Assay in all cases: growth of human tumour cells (NCI), 48 h
Experiment [1] deals with NCI-H226 lung.
Experiment [2] has as its system CAKI-1 renal.
Experiment [3] relates to SK-MEL-2 melanoma.
The test system of experiment [4] is T-47D breast.
In experiment [5] the test system is HOP-92 NSCLC.
For experiment [6], the system named is MALME-3M melanoma.
Experiment [7] deals with HT29 colon.
Experiment [8] concerns MDA-MB-435.
The test system of experiment [9] is CCRF-CEM leukemia.
Experiment [10] concerns COLO 205 colon.

Consider `Nc1ncnc2c1c(C(=O)NO)cn2C1OC(CO)C(O)C1O` (stereo not given), for which the GI50 in experiment [1] is 600 nM; in [2], 213 nM; in [3], 333 nM; in [4], 88.5 nM; in experiment [5] it was 205 nM; in experiment [6], 388 nM. Moreover, the GI50 was 390 nM in experiment [7], 363 nM in experiment [8], 235 nM in [9] and 279 nM in experiment [10]. In addition, the TGI in experiment [1] came to 5510 nM; in [2], 2500 nM; in experiment [3] it was 1920 nM; in [4], 1390 nM; in experiment [5] it was 1250 nM; in experiment [6], 3110 nM. Besides, the TGI in experiment [7] is more than 100000 nM; in experiment [8] it was 1900 nM; in experiment [9], more than 100000 nM; in experiment [10], 1550 nM.
